Test results as given in patent publication US20230131559A1, “RECOMBINANT PEPTIDES THAT BIND TO A TUMOUR-SPECIFIC ANTIBODY FOR BREAST CANCER AND USE” (Universidade Federal de Uberlândia, priority 2019, published 2023).

Tests used:
[1] = test system: serum from 150 patients (BC, BBD, NC); experiment: ELISA of synthetic peptides against serum of 150 patients (diagnostic ability); assay type: binding, human; settings: serum from 150 patients (50 from each study group)
Description: (§1) A microtiter plate was sensitized with 2.5 μg/well of each of the peptides diluted in carbonate/bicarbonate buffer (50 mM pH 9.6) and kept for 16 hours at 4° C. After blocking with PBS1X-BSA3% (1 hour at 37° C.) a single wash with PBS1X preceded the addition of FabC4 (1 ug), incubated for 1 hour at 37° C. After washing with PBS1X, anti-HA antibody which was labeled with peroxidase (Roche Applied Science) diluted 1:5000 in PBS-BSA3% for 1 h at 37° C. was added. After washing with PBS1X, the reaction with the OPD SigmaFast® (Sigma-Aldrich) substrate, interrupted with H2SO4 (2N), was analyzed in a spectrophotometer at a length of 492 nm (TP-Reader ThermoPlate).
The same conditions were used to analyze the diagnostic capacity of the peptides against the serum of the 150 patients previously described. Again, ANOVA and Mann Whitney tests were used for comparative purposes between groups with the aid of the GraphPad Prism 7.0 (GraphPad Software Inc.—La Jolla, Calif., USA) software. Values of P<0.05 were considered significant.

[2] = test system: FabC4 antibody fragment; experiment: ELISA of synthetic peptides for binding to FabC4; settings: 2.5 μg/well peptide, FabC4 1 ug, 492 nm
Description: Clones A5, A7, C4 and D6, which were able to discriminate the serum of individuals with BC from BBD and NC by Phage-ELISA, were chemically synthesized by GenScript USA Inc. To increase immunogenicity, the peptides were coupled to BSA. Enzyme immunoassays were conducted to assess the ability of FabC4 antibody to recognize these peptides.
as §1

| Sequence | reactivity between the samples [1] | absorbance, binding to FabC4 by ELISA [2] |
| --- | --- | --- |
| VTPCSSFSSFLP (listed as Homo sapiens) [pD6, chemically synthesized peptide of clone D6] | differential reactivity between the samples |  |
| VMPAAKYSLRVL (listed as Homo sapiens) [pC4, chemically synthesized peptide expressed in phage C4] |  | highest absorbance |
